ChEMBL document CHEMBL3885861, “Open TG-GATES”

Species on record: Rattus norvegicus
Assay: Open TG-GATES - Regimen: Single
Type: toxicity, organism-based, Sprague-Dawley
Parameters: regimen Single, gender Male, age 6 weeks
Conditions: in vivo, po, route gavage; for APTT / Bas / Eos / Fbg / Hb / Ht / Lym / MCH / MCHC / MCV / Mono / Neu / PT / Plat / RBC / Ret / WBC: tissue Blood; for ALP / ALT / AST / BUN / CRE / DBIL / GLC / IP / K / Na / PL / RALB / TBIL / TC / TG / TP / gamma-GTP: tissue Plasma
[1] = 100 mg/kg, 3 h, dose level Middle
[2] = 100 mg/kg, 6 h, dose level Middle
[3] = 100 mg/kg, 9 h, dose level Middle
[4] = 100 mg/kg, 24 h, dose level Middle
[5] = 300 mg/kg, 3 h, dose level High
[6] = 300 mg/kg, 6 h, dose level High
[7] = 300 mg/kg, 9 h, dose level High
[8] = 300 mg/kg, 24 h, dose level High

In the case of NS(=O)(=O)c1cc(C(=O)O)c(NCc2ccco2)cc1Cl [FUROSEMIDE], the TERMINAL_BW [1] is reported as 199.5 g, the APTT [1] is reported as 18.8 s and the Bas [1] is reported as 0%. It also gave an Eos [1] of 1%, a Fbg [1] of 324.8 mg/dL and a Hb [1] of 14.3 g/dL. It also gave a Ht [1] of 42.5%, a Lym [1] of 70.8% and an MCH [1] of 21.4 pg. For the same compound, the MCHC [1] was 33.7%, the MCV [1] was 63.3 fL and the Mono [1] was 5.4%. For the same compound, the Neu [1] was 22%, the PT [1] was 14.9 s and the Plat [1] was 121.3 x10_4/uL. The RBC [1] was 670.4 x10_4/ul, the Ret [1] was 7.9% and the WBC [1] was 73.3 x10_2/uL. The ALP [1] was 1574.2 IU/L, the ALT [1] was 43.6 IU/L and the AST [1] was 77.6 IU/L. For the same compound, the BUN [1] was 19.8 mg/dL, the CRE [1] was 0.3 mg/dL and the DBIL [1] was 0.01 mg/dL. The GLC [1] was 182.2 mg/dL, the IP [1] was 11.3 mg/dL and the K [1] was 3.6 meq/L. The Na [1] was 140.8 meq/L, the PL [1] was 161.6 mg/dL and the RALB [1] was 3 g/dL. It also gave a TBIL [1] of 0.064 mg/dL, a TC [1] of 88 mg/dL and a TG [1] of 64.2 mg/dL. For the same compound, the TP [1] was 6.4 g/dL, the gamma-GTP [1] was 1 IU/L and the TERMINAL_BW [2] was 195.4 g. The APTT [2] was 17.3 s, the Bas [2] was 0% and the Eos [2] was 1%. It also gave a Fbg [2] of 323.2 mg/dL, a Hb [2] of 14.7 g/dL and a Ht [2] of 43.3%. For the same compound, the Lym [2] was 64.8%, the MCH [2] was 20.8 pg and the MCHC [2] was 33.8%. It also gave an MCV [2] of 61.7 fL, a Mono [2] of 4.2% and a Neu [2] of 29.6%. It also gave a PT [2] of 14.9 s, a Plat [2] of 125.9 x10_4/uL and an RBC [2] of 703.4 x10_4/ul. For the same compound, the Ret [2] was 7.7%, the WBC [2] was 73.2 x10_2/uL and the ALP [2] was 1685 IU/L. For the same compound, the ALT [2] was 42.6 IU/L, the AST [2] was 84.6 IU/L and the BUN [2] was 21.8 mg/dL. The CRE [2] was 0.2 mg/dL, the DBIL [2] was 0.012 mg/dL and the GLC [2] was 192.6 mg/dL. It also gave an IP [2] of 10.4 mg/dL, a K [2] of 3.5 meq/L and a Na [2] of 141.2 meq/L. The PL [2] was 162.8 mg/dL, the RALB [2] was 3 g/dL and the TBIL [2] was 0.068 mg/dL. The TC [2] was 83.6 mg/dL, the TG [2] was 71.8 mg/dL and the TP [2] was 6.4 g/dL. The gamma-GTP [2] was 1 IU/L, the TERMINAL_BW [3] was 193.8 g and the APTT [3] was 18 s. For the same compound, the Bas [3] was 0%, the Eos [3] was 0.8% and the Fbg [3] was 334.8 mg/dL. For the same compound, the Hb [3] was 14.6 g/dL, the Ht [3] was 42.6% and the Lym [3] was 68.6%. The MCH [3] was 20.8 pg, the MCHC [3] was 34.1% and the MCV [3] was 61.1 fL. It also gave a Mono [3] of 3.2%, a Neu [3] of 26.8% and a PT [3] of 15 s. For the same compound, the Plat [3] was 133.5 x10_4/uL, the RBC [3] was 697.8 x10_4/ul and the Ret [3] was 7.4%. For the same compound, the WBC [3] was 72.2 x10_2/uL, the ALP [3] was 1341.8 IU/L and the ALT [3] was 36.2 IU/L. For the same compound, the AST [3] was 74.6 IU/L, the BUN [3] was 20.2 mg/dL and the CRE [3] was 0.2 mg/dL. For the same compound, the DBIL [3] was 0.01 mg/dL, the GLC [3] was 173.8 mg/dL and the IP [3] was 11.1 mg/dL. It also gave a K [3] of 3.6 meq/L, a Na [3] of 141.4 meq/L and a PL [3] of 149.6 mg/dL. It also gave an RALB [3] of 3 g/dL, a TBIL [3] of 0.072 mg/dL and a TC [3] of 88.6 mg/dL. The TG [3] was 36.2 mg/dL, the TP [3] was 6.3 g/dL and the gamma-GTP [3] was 0.8 IU/L. For the same compound, the TERMINAL_BW [4] was 215 g, the APTT [4] was 17.7 s and the Bas [4] was 0%. It also gave an Eos [4] of 0.8%, a Fbg [4] of 286.8 mg/dL and a Hb [4] of 13.3 g/dL. It also gave a Ht [4] of 39.6%, a Lym [4] of 80.4% and an MCH [4] of 21.9 pg. It also gave an MCHC [4] of 33.7%, an MCV [4] of 64.9 fL and a Mono [4] of 2.4%. For the same compound, the Neu [4] was 15%, the PT [4] was 15.7 s and the Plat [4] was 102.2 x10_4/uL. It also gave an RBC [4] of 610.4 x10_4/ul, a Ret [4] of 7% and a WBC [4] of 102.9 x10_2/uL. For the same compound, the ALP [4] was 1380 IU/L, the ALT [4] was 42.4 IU/L and the AST [4] was 68.2 IU/L. It also gave a BUN [4] of 19.4 mg/dL, a CRE [4] of 0.2 mg/dL and a DBIL [4] of 0.008 mg/dL. It also gave a GLC [4] of 189.4 mg/dL, an IP [4] of 8 mg/dL and a K [4] of 3.7 meq/L. It also gave a Na [4] of 141.6 meq/L, a PL [4] of 155.2 mg/dL and an RALB [4] of 2.6 g/dL. The TBIL [4] was 0.054 mg/dL, the TC [4] was 81.4 mg/dL and the TG [4] was 56 mg/dL. For the same compound, the TP [4] was 5.7 g/dL, the gamma-GTP [4] was 0.2 IU/L and the TERMINAL_BW [5] was 199.2 g. It also gave an APTT [5] of 18.3 s, a Bas [5] of 0% and an Eos [5] of 1%. It also gave a Fbg [5] of 357 mg/dL, a Hb [5] of 14.8 g/dL and a Ht [5] of 43.9%. For the same compound, the Lym [5] was 66.6%, the MCH [5] was 21.4 pg and the MCHC [5] was 33.7%. For the same compound, the MCV [5] was 63.6 fL, the Mono [5] was 4.6% and the Neu [5] was 26.4%. For the same compound, the PT [5] was 14.8 s, the Plat [5] was 119.6 x10_4/uL and the RBC [5] was 690.4 x10_4/ul. The Ret [5] was 8.3%, the WBC [5] was 67.2 x10_2/uL and the ALP [5] was 1694 IU/L. It also gave an ALT [5] of 47.2 IU/L, an AST [5] of 78.4 IU/L and a BUN [5] of 19.4 mg/dL. For the same compound, the CRE [5] was 0.3 mg/dL, the DBIL [5] was 0.01 mg/dL and the GLC [5] was 193.8 mg/dL. For the same compound, the IP [5] was 12.8 mg/dL, the K [5] was 3.4 meq/L and the Na [5] was 140 meq/L. For the same compound, the PL [5] was 168.2 mg/dL, the RALB [5] was 3.2 g/dL and the TBIL [5] was 0.062 mg/dL. For the same compound, the TC [5] was 91.6 mg/dL, the TG [5] was 69 mg/dL and the TP [5] was 6.9 g/dL. It also gave a gamma-GTP [5] of 0.8 IU/L, a TERMINAL_BW [6] of 194.8 g and an APTT [6] of 20.9 s. It also gave a Bas [6] of 0%, an Eos [6] of 1% and a Fbg [6] of 381.6 mg/dL. The Hb [6] was 15.3 g/dL, the Ht [6] was 45.3% and the Lym [6] was 62.6%. It also gave an MCH [6] of 21.4 pg, an MCHC [6] of 33.8% and an MCV [6] of 63.5 fL. For the same compound, the Mono [6] was 4%, the Neu [6] was 31.8% and the PT [6] was 14.4 s. The Plat [6] was 126.6 x10_4/uL, the RBC [6] was 715 x10_4/ul and the Ret [6] was 7.7%. The WBC [6] was 72.7 x10_2/uL, the ALP [6] was 1419.8 IU/L and the ALT [6] was 39.2 IU/L. The AST [6] was 77.2 IU/L, the BUN [6] was 24.4 mg/dL and the CRE [6] was 0.3 mg/dL. The DBIL [6] was 0.008 mg/dL, the GLC [6] was 190.6 mg/dL and the IP [6] was 11.4 mg/dL. It also gave a K [6] of 3.5 meq/L, a Na [6] of 140 meq/L and a PL [6] of 190 mg/dL. It also gave an RALB [6] of 3.2 g/dL, a TBIL [6] of 0.068 mg/dL and a TC [6] of 111.4 mg/dL. For the same compound, the TG [6] was 64.2 mg/dL, the TP [6] was 6.9 g/dL and the gamma-GTP [6] was 0.6 IU/L. The TERMINAL_BW [7] was 192 g, the APTT [7] was 19.5 s and the Bas [7] was 0%. It also gave an Eos [7] of 0.8%, a Fbg [7] of 382.4 mg/dL and a Hb [7] of 15.3 g/dL. It also gave a Ht [7] of 44.8%, a Lym [7] of 66.4% and an MCH [7] of 21.3 pg. The MCHC [7] was 34.1%, the MCV [7] was 62.5 fL and the Mono [7] was 3.4%. The Neu [7] was 28.4%, the PT [7] was 14.4 s and the Plat [7] was 117.9 x10_4/uL. The RBC [7] was 716 x10_4/ul, the Ret [7] was 7.8% and the WBC [7] was 73.1 x10_2/uL. The ALP [7] was 1461.8 IU/L, the ALT [7] was 38 IU/L and the AST [7] was 71.6 IU/L. It also gave a BUN [7] of 25.2 mg/dL, a CRE [7] of 0.2 mg/dL and a DBIL [7] of 0.012 mg/dL. For the same compound, the GLC [7] was 186.8 mg/dL, the IP [7] was 10.9 mg/dL and the K [7] was 3.3 meq/L. For the same compound, the Na [7] was 141.6 meq/L, the PL [7] was 176.8 mg/dL and the RALB [7] was 3.2 g/dL. The TBIL [7] was 0.078 mg/dL, the TC [7] was 102 mg/dL and the TG [7] was 33.6 mg/dL. For the same compound, the TP [7] was 6.8 g/dL, the gamma-GTP [7] was 1 IU/L and the TERMINAL_BW [8] was 195.5 g. The APTT [8] was 16.8 s, the Bas [8] was 0.2% and the Eos [8] was 1%. The Fbg [8] was 386.6 mg/dL, the Hb [8] was 14.5 g/dL and the Ht [8] was 41.9%. The Lym [8] was 74%, the MCH [8] was 21.2 pg and the MCHC [8] was 34.5%. The MCV [8] was 61.3 fL, the Mono [8] was 3.4% and the Neu [8] was 20.4%. The PT [8] was 15.2 s, the Plat [8] was 117.8 x10_4/uL and the RBC [8] was 683.8 x10_4/ul. It also gave a Ret [8] of 6.7%, a WBC [8] of 95.6 x10_2/uL and an ALP [8] of 1470.8 IU/L. For the same compound, the ALT [8] was 44.4 IU/L, the AST [8] was 72.8 IU/L and the BUN [8] was 36.2 mg/dL. For the same compound, the CRE [8] was 0.3 mg/dL, the DBIL [8] was 0.014 mg/dL and the GLC [8] was 178.4 mg/dL. It also gave an IP [8] of 7.8 mg/dL, a K [8] of 3.3 meq/L and a Na [8] of 138.2 meq/L. For the same compound, the PL [8] was 159.2 mg/dL, the RALB [8] was 3 g/dL and the TBIL [8] was 0.064 mg/dL. The TC [8] was 93.2 mg/dL, the TG [8] was 43 mg/dL and the TP [8] was 6.4 g/dL. It also gave a gamma-GTP [8] of 0.8 IU/L.
